Results published in US20130115671A1, “ENZYMES FROM CONIDIOBOLUS BREFELDIANUS AND PROCESS FOR PREPARATION THEREOF” (Council of Scientific and Industrial Research, priority 2010, published 2013).
“And” between values parts separate entries of the source, which are not always exact repeats. Equal entries are not always repeated.

Key:
[1] = tested on: protease from Conidiobolus brefeldianus MTCC 5185; assay: Stability of protease in presence of organic solvents at 37° C.; format: physicochemical; conditions: 20% (v/v) solvent
Description: (§1) This example illustrates the effect of water miscible as well as water immiscible organic solvents on stability of crude protease at 37° C. […] Samples were removed at different time intervals and residual activity was estimated. Sample without organic solvent served as control.

[2] = tested on: protease from Conidiobolus brefeldianus MTCC 5185; assay: Stability of protease in presence of organic solvents at 28° C.; format: physicochemical; design: key to residual activity of protease, 0 h / residual activity of protease, 12 h: % of initial activity with respective solvent (initial = 100%); conditions: crude protease, 20% (v/v) solvent
Description: as §1, with “28°” for “37°”, “control. Initial activity with respective solvents was taken as 100% (Table 17). […] (Table 17).” for “control.”

[3] = tested on: protease of Conidiobolus brefeldianus MTCC 5185; assay: Effect of inhibitors on protease activity (PMSF, EDTA, iodoacetate, DMSO); format: biochemical; conditions: pre-incubated 1 h, pH 8.0; 20 mM EDTA, 10 mM Iodoacetate, 1 mM PMSF (in DMSO), DMSO
Source text: This example illustrates the effect of inhibitors on protease activity of Conidiobolus brefeldianus MTCC 5185. Following inhibitors were studied: phenylmethylsulfonyl fluoride (PMSF), ethylene-diaminetetraacetic acid (EDTA), iodoacetic acid, and dimeth ylsulphoxide (DMSO). The crude culture filtrate grown as described in example 3 was concentrated by ultra-filtration on PM-10 and YM-3 membranes as described in example 27 and used for inhibition studies. Both the protease preparations were pre-incubated in 100 mM Tris-HCl buffer (pH 8.0) with each inhibitor for 1 h and the residual protease activity was measured at 50° C., pH 9.0. Protease without inhibitor served as control.

[4] = tested on: protease of Conidiobolus brefeldianus MTCC 5185; assay: Effect of inhibitors on protease activity (TPCK, TLCK, Benzamidine); format: biochemical; conditions: 5 mM inhibitor, crude protease pre-incubated 30 min, pH 8.0
Description: This example illustrates the effect of inhibitors on protease activity of Conidiobolus brefeldianus MTCC 5185. Following inhibitors were studied: N-tosyl-L-phenylalanine chloromethyl ketone (TPCK), N-tosyl-L-lysine chloromethyl ketone (TLCK), and Benzamidine. Crude protease was pre-incubated with each inhibitor in 100 mM Tris-HCl buffer (pH 8.0) for 30 min and the residual protease activity was measured 50° C., pH 9.0. Protease without inhibitor served as control.

Row | Compound | Residual Activity (%) of protease, 30 min ([1]; pH 7, 30 min) [%] | Residual Activity (%) of protease, 60 min ([1]; pH 7, 60 min) [%] | Residual Activity (%) of protease, 120 min ([1]; pH 7, 120 min) [%] | Residual Activity (%) of protease, 240 min ([1]; pH 7, 240 min) [%] | Residual Activity (%) of protease, 0 ([1]; crude protease, pH 7, 0 min) [%] | residual activity of protease, 0 h ([2]; 0 h) | residual activity of protease, 5 h ([2]; 5 h) | residual activity of protease, 12 h ([2]; 12 h) | Inhibition (%) PM-10 Retentate [3] [%] | Inhibition (%) YM-3 Retentate [3] [%] | Inhibition (%) [4]
1 | C[S+](C)[O-] [DMSO, dimethylsulphoxide] | 69.48 | 68.94 | 48.70 | 28.53 | 100 | 100 | 98.12 | 54.55 | 3.02 | 1.37 | 
2 | N-tosyl-L-lysine chloromethyl ketone [TLCK] |  |  |  |  |  |  |  |  |  |  | 29% and 29.22%
3 | N-tosyl-L-phenylalanine chloromethyl ketone [TPCK] |  |  |  |  |  |  |  |  |  |  | 9% and 9.02%
